What was measured:
S. aureus = details: pH 7.4; cited from earlier work
B. subtilis = details: pH 7.4; cited from earlier work
[1] = test system: S. aureus, E. faecalis, E. coli and P. aeruginosa; assay: MIC determination, statements across the bacteria tested; type: cell-based; details: S. aureus, E. faecalis, E. coli, P. aeruginosa; read-out: MIC values against all four bacterial species tested
Description: For the compounds above, respective minimum inhibitory concentration (MIC) values against the Gram-positive S. aureus, E. faecalis, Gram-negative E. coli and P. aeruginosa were determined, respectively, by standard methods. […] Cell viability was verified by serial dilution and plating on MH agar. Both aqueous and fresh media positive controls were performed for each trial. Overnight bacterial cultures of Staphylococcus aureus (SH1000), Enterococcus faecalis (OG1RF), Escherichia coli (MC4100), and Pseudomonas aeruginosa (PAO1-WT) were grown in Mueller-Hinton broth at 37° C., with all but E. faecalis under shaking Overnight cultures were diluted to approximately 10^6 cfu/mL as determined by OD measurement at 640 nm and plating on MH agar.
Each compound was serially diluted two-fold with water from 1 mM down to 1 μM yielding twelve dilutions per compound. In triplicate, 100 µL of each dilution were pipetted into the appropriate well of a 96-well microtiter plate, and then […] of overnight bacterial culture diluted to ca. 10^6 cfu/mL were inoculated into each well. Microtiter plates were incubated at 37° C. for 72 hours. Up to seven compounds were tested against one bacterial species at twelve decreasing concentrations per 96-well plate.

[2] = test system: pre-established Staph aureus biofilms; assay: visual disruption of pre-established biofilms; type: cell-based; details: disperses biofilms
Description: Compound (12,2,0,2,12) causes a visual disruption of pre-established Staph aureus biofilms at 25 μM (micromolar). Thus it at least disperses biofilms at 25 μM.

## N=C(N=C(N)N)Nc1cccc(NC(=N)N=C(N)N)c1 [Compound 11b]
S. aureus
  MBIC S. aureus: 750 ± 250 µM
B. subtilis
  MBIC B. subtilis: 7 ± 3 µM

## CCCCCCCCCCCC[N+](C)(C)CCN(C)CC[N+](C)(C)CCCCCCCCCCCC.[Br-].[Br-] [Compound 12, 2, 0, 2, 12]
[1]
  MIC: ≤ 4 µM
[2]
  concentration causing visual disruption of pre-established biofilms: 25 µM

## N=C(N=C(N)N)Nc1cccc(NC(=N)N=C(N)N)c1 [Compound 11a]
S. aureus
  MBIC S. aureus: 300 µM
B. subtilis
  MBIC B. subtilis: 30 µM

— patent US20160278375A1, “BISCATIONIC AND TRISCATIONIC AMPHIPHILES AS ANTIMICROBIAL AGENTS” (Temple University of the Commonwealth System of Higher …, priority 2013, published 2016)
